Data taken from patent US20230293451A1, “STIMULATION OF HAIR GROWTH” (The General Hospital Corporation, priority 2020, published 2023).
Entries after “also recorded” stand apart in the source; their conditions may differ.

What was measured:
[1] = system: mouse skin with hair follicles arrested in telogen; test: Topical administration of novel compounds to pre-sensitized mice (Example 2); assay type: in vivo, C57BL/6 mice; conditions: pre-sensitized with 2% on chest; 2% topical on days 3, 5 and 7; images day 17
Text: In order to compare the effect of SABDE, CF3-SABDE or CC1-SABDE (see FIG. 2a) on hair growth, 3 female C57BL/6 mice, 8 weeks old, were pre-sensitized with 2% of each compound on the chest 4 days before the first treatment and both flanks were shaved (Day 0). On days 3, 5, and 7, 2% of SABDE, CF3-SABDE or CC1-SABDE was topically administered to the shaved left flank of one mouse each using a cotton-tipped applicator. Images were taken on day 17 in order to visualize hair growth and inflammation (see FIGS. 2B and 2C).

[2] = system: hair growth in shaved mice; test: Hair growth in animal models after topical delivery of hapten derivatives (general statements); assay type: in vivo
[3] = system: resting telogen hair follicles; test: Induction of anagen phase by CF3-SADBE, H&E staining of treated skin (Example 4); assay type: in vivo, mouse; conditions: 100 uL of 100 mM on left flank; right flank untreated
Text: (§1) To measure the effect of SABDE and DPCP (see FIG. 1a) on hair growth, 6 female C57BL/6 mice, 8 weeks old, were shaved on both flanks 4 days before topical administration of the compounds (Day −4). During this period, the mice were visually monitored to confirm absence of hair growth and to confirm the entire shaved area is arrested in the telogen phase as expected from 8 weeks old mice. On the day of administration (day 0), 2% SABDE or 2% DCPC was topically administered to the shaved left flank of 3 mice each using a cotton-tipped applicator (see FIG. 1B). Images were taken on day 9 and day 16 in order to visualize hair growth and inflammation (see FIG. 1c). Skin pigmentation intensity was quantified by ImageJ. The anagen induction index is calculated as the change in skin pigmentation intensity (a marker of anagen) on the treated side relative to (i.e., as a percent of) the untreated side (see FIG. 1d).
The effects of a topical treatment dose of CF3-SADBE was measured and visualized using the methods described in Example 1. The gross appearance of the mouse treated with CF3-SADBE was imaged (see FIG. 4a). CF3-SADBE was administered on the left flank at a dose of 100 uL of 100 mM CF3-SADBE (see FIG. 4B). The right flank was left untreated (see FIG. 4C).

[4] = system: mouse skin with hair follicles arrested in telogen; test: Comparison of 100 mM SADBE and CF3-SADBE topical treatment (Examples 3 and 5); assay type: in vivo, C57BL/6 mice; conditions: 100 mM topical; for visible anagen: by day 10; for anagen induction / visible inflammation: by day 14; for hair growth on the treated flank: by day 17
Text: as §1
(§2) The anagen induction index can be determined by any methods known in the art, including, for example, histological methods (e.g., H&E, other stains, or without stains) and/or other visual morphology methods. (e.g., methods to measure the biological parameters of hair growth. This value is then normalized to the specific experiment (individual mice) and shown as relative anagen induction by skin pigmentation intensity (a marker of anagen) on the treated side as a percent of the baseline untreated side. Analysis of the anagen (or other phases) can be performed by any method known in the art, including, e.g., a tissue biopsy and/or morphological analysis.
(§3) Inflammation can be measured by known methods such as histological grading, visual identification, and quantification of lesions. The number, size, and extent of the cutaneous lesions present (e.g., see blue * in FIG. 3a) can be visualized and quantified using any known method in the art, including, for example, histological methods (e.g., H&E, other stains, or without stains) and/or other visual morphology methods.
The effects of a topical treatment dose of SADBE or CF3-SADBE were measured using the methods describe in Example 1. In FIG. 3, the topical treatment dose used was 50 uL of 100 mM SADBE or CF3-SADBE.
The effects on anagen induction and inflammation of topical treatment with CF3-SADBE at 100 mM were measured and visualized using the methods described in Example 1.

[5] = system: mouse skin with hair follicles arrested in telogen; test: Topical administration of SADBE and DPCP to shaved flank of mice (Example 1); assay type: in vivo, C57BL/6 mice; conditions: for induction of anagen and hair growth: 2% topical, single administration day 0 to shaved left flank, images day 9 and day 16; for hair growth in a mammal without an autoimmune disease: mouse, in vivo
Text: as §1, §2, §3

Row | SMILES | anagen and hair growth [1] | inflammation [1] | efficacy as measured by time of anagen induction [2] | inflammation relative to known treatments [2] | hair growth promoting activity ([2]; animal models, after prior shaving) | hair follicle phase in treated skin (H&E staining) [3] | visible anagen [4] | anagen induction [4] | visible inflammation [4] | hair growth on the treated flank [4] | induction of anagen and hair growth [5] | hair growth in a mammal without an autoimmune disease [5]
1 | O=c1c(OCCCCCl)c(OCCCCCl)c1=O [CC1-SABDE] | neither produced inflammation nor anagen and hair growth | neither produced inflammation nor anagen and hair growth | – | – | – | – | – | – | – | – | – | –
2 | O=c1c(OCCCC(F)(F)F)c(OCCCC(F)(F)F)c1=O [CF3-SADBE, squaric acid di(trifluromethyl)propyl ester] | induce anagen and hair growth at least as efficiently as SADBE | less inflammation | earlier induction of anagen | less inflammation than known treatments; also recorded: somewhat diminished inflammation | accelerated hair growth relative to known treatments | hair follicles in anagen | induced visible anagen | induces anagen | much less visible inflammation | Robust hair growth | – | –
3 | O=c1c(-c2ccccc2)c1-c1ccccc1 [DPCP, diphenylcyclopropenone] | – | – | – | – | – | – | – | – | – | – | induction of anagen and hair growth | increased hair growth
4 | CCCCOc1c(OCCCC)c(=O)c1=O [SADBE] | – | inflammation in the SADBE treated flank | – | – | – | – | does not; also recorded: did not induce visible anagen | induces anagen | substantial inflammation; also recorded: more visible inflammation | Robust hair growth | induction of anagen and hair growth | increased (e.g., promoted) hair growth
